Here are results for 8 compounds from patent US20190038756A1, “COMPOSITIONS INCLUDING BENZENESULFONAMIDE-CONTAINING NON-STEROIDAL ANTI-INFLAMMATORY DRUGS, SILK FIBROIN, AND A GELLING AGENT AND USES THEREOF” (Cocoon Biotech Inc., priority 2016, published 2019).

The conditions of data set [1]: oral NOAEL dose 20 mg/kg, cited from earlier work.
Data set [2] is described as follows: AUC at NOAEL oral dose from oral Celecoxib NDA package. Particulars: in vivo, oral NOAEL dose 20 mg/kg, read-out: Extrapolated AUC for 25 days.
Data set [3] can be described thus: Solubility of celecoxib in release media. In kind it is physicochemical. As to conditions: release medium (phosphate buffered saline with Tween-80), aqueous with cosolvent or surfactant or cyclodextrin; 1× phosphate buffered saline, 2% (v/v) Tween-80, 0.05% sodium azide.
The nature of data set [4]: In vitro release study of NSAIDs from silk-PEG hydrogels (UV detection). In kind it is physicochemical. Particulars: for time within which celecoxib was released / sustained release (e.g., greater than one week) using a silk-fibroin hydrogel delivery platform: silk-fibroin hydrogel; for time within which celecoxib was released: 6.5% (w/v) fibroin (FIG. 5); for release of free drug without encapsulation in silk-fibroin hydrogels: no hydrogel. The protocol: Lyophilized silk was dissolved with ultrapure water to obtain concentrations of 1.3, 3.6, 7.0, 13.0, and 23.0% (w/v). Polyethylene glycol (PEG) with molecular weights of 300 and 400 Da (PEG300 and PEG400) was diluted with ultrapure water when necessary. Celecoxib (a benzenesulfonamide-containing NSAID) and other NSAIDs which are not benzenesulfonamide-containing NSAIDs (tenoxicam, meloxicam, and lomoxicam) were dissolved with 80% (v/v) PEG400 solution to obtain low concentration solutions (<40 mg/mL) or with 100% (v/v) PEG300 to obtain high concentration solutions (>100 mg/mL). Diclofenac sodium salt (another NSAID that is not a benzenesulfonamide-containing NSAID) was dissolved in the aqueous silk solution.
The PEG or PEG/drug solution was mixed with silk solution by pipetting up and down gently and aliquoted into a 2-mL Eppendorf tube. Each tube was left at 37° C. to gel overnight (Wang et al., Acta Biomater. 12:51-61, 2015).
To the 2-mL Eppendorf tube containing fibroin-drug hydrogel, 1.95 mL of release medium was added. The release medium contained 1× phosphate buffer, pH 7.4, 0.1% (v/v) Tween-80, and 0.02% (w/v) sodium azide. The samples were incubated at 37° C. with gentle shaking. The release medium was changed after 24 hours and then approximately once every 3 days. The release medium was subjected to UV detection using a UV transparent bottom plate (Corning) at the respective wavelengths listed in Table 8. Control release medium was measured under the same condition for background subtraction. A calibration curve was generated for each drug by dissolving a known amount of each drug in the release medium, and making dilutions with the release medium.

Data set [5] in a line: Gelation of silk fibroin hydrogels with varying gelling agents (25° C., 37° C., autoclave). In kind it is physicochemical.
For data set [6], the system named is TNF-α in human whole blood. Briefly: Human whole blood activation: TNF-α by ELISA after 24 hours at 37° C., with or without LPS. The data set is classed as cell-based. The source says:
Acute inflammatory responses are initiated via activation of a mammal's innate immune system. Human whole blood contains the principle repertoire of immune cells responsible for initiating an innate driven inflammatory response. Activation of inflammation in human whole blood is a useful in vitro assay for assessing the inflammatory potential of silk-fibroin hydrogel constituents. For this reason, whole human blood was exposed to silk fibroin solutions, three dimensional silk fibroin hydrogels, and a variety of different gelling agents for 24 hours at 37° C. and assessed for activation of inflammation.
Lipopolysaccharide (LPS) was used as a positive stimulator of the inflammatory marker TNF-α, in whole blood. Experiments to assess the inflammatory potential of formulation constituents were conducted both in the absence and the presence of lipopolysaccharide (LPS). The later condition to assess whether any formulation constituent had the activity of potentiating a known inflammatory signal. In each experiment, plasma was collected at the end of the incubation period and analyzed for TNF-α via enzyme-linked immunosorbent assay (ELISA).

[7] abbreviates: absence of celecoxib, RT curing.
[8] abbreviates: absence of celecoxib, autoclaving.

≈ marks a conversion by molar mass, not a printed value. Counter-ions that a name gives are not always drawn. Like-named read-outs stand apart in the source and are kept apart here.

Consider `Cc1ccc(-c2cc(C(F)(F)F)nn2-c2ccc(S(N)(=O)=O)cc2)cc1` [Celecoxib, 4-[5-(4-methylphenyl)-3-(trifluoromethyl)pyrazol-1-yl]benzenesulfonamide], for which the entries for the “AUC at Day 1” value in data set [1] (Female (F)) and in data set [1] (Male (M)) were 39.1 µg·h/mL and 18.7 µg·h/mL, respectively. The figures for the AUC in data set [2] (Female (F)) and in data set [2] (Male (M)) were 978 µg·h/mL and 468 µg·h/mL, respectively. In data set [3], this compound displayed a solubility of 850 µg/mL (≈ 2230 µM). Besides, the “extended time period of celecoxib release” value in data set [4] (all hydrogels of FIG. 7) was at most 56 days. Besides, the “duration of sustained celecoxib release” value in data set [4] (fibroin concentrations in the hydrogel […] (w/v) to 6.5% (w/v)) was “sustained over two months”. Further, the “period over which celecoxib release occurs” value turned out to be 15 days in data set [4] (hydrogel fibroin concentration 0.65% (w/v) (FIG. 6)); 30 days in data set [4] (hydrogel fibroin concentration 1.3% (w/v) (FIG. 6)); 41 days in data set [4] (hydrogel fibroin concentration 12.5% (w/v) (FIG. 6)); 41 days in data set [4] (hydrogel fibroin concentration […] (w/v) (FIG. 6)); 6 days in data set [4] (no fibroin/“free” celecoxib sample (0% silk-fibroin) (FIG. 6)). For the same compound, the “time within which celecoxib was released” value is on record as at most 30 days in data set [4] (celecoxib 0.09375% (w/v)), at most 30 days in data set [4] (celecoxib 0.1875% (w/v)) and at most 75 days in data set [4] (celecoxib 0.375% (w/v)). Further, the “duration of slow release of celecoxib at ˜40 μg a day” value in data set [4] (silk-fibroin hydrogels) is on record as “more than 75 days”. For the same compound, in data set [4] (silk-fibroin hydrogels), the “slow release rate of celecoxib from silk-fibroin hydrogels” value was around 40 μg a day.
Take `O=C(O)Cc1ccccc1Nc1c(Cl)cccc1Cl` [Diclofenac sodium salt]: the “time within which drug was completely released” value in data set [4] (from all the tested silk-fibroin hydrogels (FIGS. 2-4), 37° C., phosphate buffer pH 7.4, 0.1% Tween-80) is at most 4 days. For the same compound, in data set [4], the “release of free drug without encapsulation in silk-fibroin hydrogels” value was “released within one day” and the “sustained release (e.g., greater than one week) using a silk-fibroin hydrogel delivery platform” value is on record as “could not be achieved”.
For the compound `CN1C(C(=O)Nc2ccccn2)=C(O)c2sc(Cl)cc2S1(=O)=O` [Lomoxicam, lomoxicam], the “day at which cumulative release plateaued” value in data set [4] (drug with no fibroin (FIG. 1)) is 2 days. Further, the “day at which cumulative release plateaued” value in data set [4] (from silk-fibroin hydrogels, all tested formulations (FIG. 1), 37° C., phosphate buffer pH 7.4, 0.1% Tween-80) was found to be 6 days. In addition, in data set [4], the “release of free drug without encapsulation in silk-fibroin hydrogels” value is listed as “released within one day” and the “sustained release (e.g., greater than one week) using a silk-fibroin hydrogel delivery platform” value is recorded as “could not be achieved”.
Consider `CC(O)CO` (stereo not drawn) [Propylene glycol], for which the “Minimum gelling agent concentration eliciting gelation” value in data set [5] (87 mg/mL celecoxib, RT) is on record as 30 % (v/v); in data set [5] (87 mg/mL celecoxib, autoclave), 10 % (v/v); in data set [5] (setting [7]) it was 40 % (v/v); in data set [5] (setting [8]), 20 % (v/v).
With `OCC(O)CO` [glycerol], the “Minimum gelling agent concentration eliciting gelation” value in data set [5] (87 mg/mL celecoxib, curing temperature 37° C.) is given as 40 % (v/v); in data set [5] (absence of celecoxib, 37° C.), 40 % (v/v); in data set [5] (setting [7]), 50 % (v/v); in data set [5] (setting [8]), 30 % (v/v).
As for `OC[C@@H](O)[C@@H](O)[C@H](O)[C@@H](O)CO` [sorbitol], the “Inflammatory potential (TNF-α) in human whole blood” value in data set [6] (+/−LPS, relevant concentrations) is listed as “non-inflammatory”. The “Gelling agent concentration at which a hydrogel formed” value in data set [5] (absence of celecoxib, 37° C.) was 30 % (w/v); in data set [5] (absence of celecoxib, RT), 30 % (w/v).
For Glycerol formal, the entries for the “Minimum gelling agent concentration eliciting gelation” value in data set [5] (setting [7]) and in data set [5] (setting [8]) were 40 % (v/v) and 20 % (v/v), respectively.
“silk fibroin: soluble silk fibroin samples isolated using several different degumming techniques”: the “Inflammatory signal (TNF-α) in human whole blood” value in data set [6] (absence of co-added LPS, 24 hours at 37° C.) is given as “did not exhibit inflammatory signals beyond low baseline responses”. Besides, the “TNF-α response in human whole blood” value in data set [6] (presence of LPS, 24 hours at 37° C.) is given as “generally reduced compared to the response to LPS alone”.
